Laboratory results published in patent publication US20220323406A1, “METHODS AND COMPOSITIONS FOR DIFFERENTIATING STEM CELLS” (Massachusetts Institute of Technology, priority 2019, published 2022).

Columns and labels:
[1] = system: ENR+CD organoids (ISC to Paneth cell differentiation); assay: Primary screen: basal (non-stimulated) lysozyme secretion LYZ.NS, 2.5-D 384-well ENR+CD organoid differentiation; type: cell-based, mouse; conditions: primary screen; for Z.LYZ.NS: standard z score
Source text: (§1) High-throughput screening.

[2] = system: ENR+CD organoids (ISC to Paneth cell differentiation); assay: Primary screen: CCh-stimulated lysozyme secretion LYZ.S, 2.5-D 384-well ENR+CD organoid differentiation; type: cell-based, mouse; conditions: primary screen
Source text: as §1

ENR+CD organoids = assay: Primary screen: ATP (CellTiter-Glo 3D, CTG) cell number/viability, 2.5-D 384-well ENR+CD organoids; conditions: primary screen; for Z.CTG: standard z score;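 for all read-outs here: compounds given at plating and again on day 3 over a 6-day differentiation from ENR+CV stem-cell-enriched precursors, ATP measured on day 6, plate median as control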
[3] = 1st dose row of the treatment (0.08 uM by row order; dose not reprinted)
[4] = 2nd dose row of the treatment (0.40 uM by row order; dose not reprinted)
[5] = 3rd dose row of the treatment (2.00 uM by row order; dose not reprinted)
[6] = 4th dose row of the treatment (10.00 uM by row order; dose not reprinted)

For Cc1[nH]c2ccccc2c1CCNC(=O)c1cccs1 [CK-636], the Dose.FC.LYZ.NS ([1]; dose 0.08 uM) was 0.039 log2 fold change, the Dose.FC.LYZ.NS ([1]; dose 0.40 uM) was −0.049 log2 fold change and the Dose.FC.LYZ.NS ([1]; dose 2.00 uM) was −0.066 log2 fold change. For the same compound, the Dose.FC.LYZ.NS ([1]; dose 10.00 uM) was −0.108 log2 fold change, the Z.LYZ.NS ([1]; dose 0.08 uM) was 0.336 and the Z.LYZ.NS ([1]; dose 0.40 uM) was −0.427. The Z.LYZ.NS ([1]; dose 2.00 uM) was −0.573, the Z.LYZ.NS ([1]; dose 10.00 uM) was −0.944 and the Dose.FC.LYZ.S ([2]; dose 0.08 uM) was 0.080 log2 fold change. For the same compound, the Dose.FC.LYZ.S ([2]; dose 0.40 uM) was −0.013 log2 fold change, the Dose.FC.LYZ.S ([2]; dose 2.00 uM) was 0.072 log2 fold change and the Dose.FC.LYZ.S ([2]; dose 10.00 uM) was −0.103 log2 fold change. It also gave a Dose.FC.CTG (ENR+CD organoids; dose 0.08 uM) of 0.202 log2 fold change, a Dose.FC.CTG (ENR+CD organoids; dose 0.40 uM) of −0.004 log2 fold change and a Dose.FC.CTG (ENR+CD organoids; dose 2.00 uM) of −0.201 log2 fold change. The Dose.FC.CTG (ENR+CD organoids; dose 10.00 uM) was −0.169 log2 fold change, the Z.CTG (ENR+CD organoids; dose 0.08 uM) was 0.483 and the Z.CTG (ENR+CD organoids; dose 0.40 uM) was −0.010. For the same compound, the Z.CTG (ENR+CD organoids; dose 2.00 uM) was −0.479 and the Z.CTG (ENR+CD organoids; dose 10.00 uM) was −0.404.

With Cc1ccc([C@@H]2O[C@H](CO)[C@@H](O)[C@H](O)[C@H]2O)cc1Cc1ccc(-c2ccc(F)cc2)s1 [Canagliflozin] the Dose.FC.LYZ.NS ([1]; dose 0.08 uM) was −0.027 log2 fold change, the Dose.FC.LYZ.NS ([1]; dose 0.40 uM) was −0.046 log2 fold change and the Dose.FC.LYZ.NS ([1]; dose 2.00 uM) was 0.025 log2 fold change. The Dose.FC.LYZ.NS ([1]; dose 10.00 uM) was −0.064 log2 fold change, the Z.LYZ.NS ([1]; dose 0.08 uM) was −0.233 and the Z.LYZ.NS ([1]; dose 0.40 uM) was −0.398. For the same compound, the Z.LYZ.NS ([1]; dose 2.00 uM) was 0.214, the Z.LYZ.NS ([1]; dose 10.00 uM) was −0.556 and the Dose.FC.LYZ.S ([2]; dose 0.08 uM) was 0.014 log2 fold change. It also gave a Dose.FC.LYZ.S ([2]; dose 0.40 uM) of −0.032 log2 fold change, a Dose.FC.LYZ.S ([2]; dose 2.00 uM) of 0.028 log2 fold change and a Dose.FC.LYZ.S ([2]; dose 10.00 uM) of −0.033 log2 fold change. It also gave a Dose.FC.CTG (ENR+CD organoids; dose 0.08 uM) of −0.240 log2 fold change, a Dose.FC.CTG (ENR+CD organoids; dose 0.40 uM) of −0.098 log2 fold change and a Dose.FC.CTG (ENR+CD organoids; dose 2.00 uM) of 0.042 log2 fold change. The Dose.FC.CTG (ENR+CD organoids; dose 10.00 uM) was −0.079 log2 fold change, the Z.CTG (ENR+CD organoids; dose 0.08 uM) was −0.572 and the Z.CTG (ENR+CD organoids; dose 0.40 uM) was −0.235. It also gave a Z.CTG (ENR+CD organoids; dose 2.00 uM) of 0.101 and a Z.CTG (ENR+CD organoids; dose 10.00 uM) of −0.188.

For CC1(C)CCC(CN2CCN(c3ccc(C(=O)NS(=O)(=O)c4ccc(NCC5CCOCC5)c([N+](=O)[O-])c4)c(Oc4cnc5[nH]ccc5c4)c3)CC2)=C(c2ccc(Cl)cc2)C1 [ABT-199 (GDC-0199)], the “SSMD.LYZ.NS_Rep (strictly standardized mean difference)” value [1, 3] was −0.009, the “SSMD.LYZ.NS_Rep (strictly standardized mean difference)” value [1, 4] was −0.192 and the “SSMD.LYZ.NS_Rep (strictly standardized mean difference)” value [1, 5] was −0.116. The “SSMD.LYZ.NS_Rep (strictly standardized mean difference)” value [1, 6] was −0.810, the Dose.FC.LYZ.NS ([1]; dose 0.08 uM) was −0.002 log2 fold change and the “Z.LYZ.NS (standard z score)” value ([1]; dose 0.08 uM) was −0.013. For the same compound, the Dose.FC.LYZ.NS ([1]; dose 0.40 uM) was −0.029 log2 fold change, the “Z.LYZ.NS (standard z score)” value ([1]; dose 0.40 uM) was −0.251 and the Dose.FC.LYZ.NS ([1]; dose 2.00 uM) was −0.016 log2 fold change. For the same compound, the “Z.LYZ.NS (standard z score)” value ([1]; dose 2.00 uM) was −0.136, the Dose.FC.LYZ.NS ([1]; dose 10.00 uM) was −0.169 log2 fold change and the “Z.LYZ.NS (standard z score)” value ([1]; dose 10.00 uM) was −1.471. For the same compound, the “SSMD.LYZ.S_Rep (strictly standardized mean difference)” value [2, 3] was −0.260, the “Z.LYZ.S (standard z score)” value [2, 3] was −0.285 and the “SSMD.LYZ.S_Rep (strictly standardized mean difference)” value [2, 4] was 0.443. For the same compound, the “Z.LYZ.S (standard z score)” value [2, 4] was 0.494, the “SSMD.LYZ.S_Rep (strictly standardized mean difference)” value [2, 5] was −0.368 and the “Z.LYZ.S (standard z score)” value [2, 5] was −0.404. The “SSMD.LYZ.S_Rep (strictly standardized mean difference)” value [2, 6] was −1.131, the “Z.LYZ.S (standard z score)” value [2, 6] was −1.890 and the Dose.FC.LYZ.S ([2]; dose 0.08 uM) was −0.044 log2 fold change. It also gave a Dose.FC.LYZ.S ([2]; dose 0.40 uM) of 0.076 log2 fold change, a Dose.FC.LYZ.S ([2]; dose 2.00 uM) of −0.063 log2 fold change and a Dose.FC.LYZ.S ([2]; dose 10.00 uM) of −0.292 log2 fold change. The “SSMD.CTG.Rep (strictly standardized mean difference)” value (ENR+CD organoids; [3]) was 0.051, the “SSMD.CTG.Rep (strictly standardized mean difference)” value (ENR+CD organoids; [4]) was 0.111 and the “SSMD.CTG.Rep (strictly standardized mean difference)” value (ENR+CD organoids; [5]) was −0.377. The “SSMD.CTG.Rep (strictly standardized mean difference)” value (ENR+CD organoids; [6]) was −1.402, the Dose.FC.CTG (ENR+CD organoids; dose 0.08 uM) was 0.019 log2 fold change and the “Z.CTG (standard z score)” value (ENR+CD organoids; dose 0.08 uM) was 0.045. For the same compound, the Dose.FC.CTG (ENR+CD organoids; dose 0.40 uM) was 0.038 log2 fold change, the “Z.CTG (standard z score)” value (ENR+CD organoids; dose 0.40 uM) was 0.090 and the Dose.FC.CTG (ENR+CD organoids; dose 2.00 uM) was −0.278 log2 fold change. For the same compound, the “Z.CTG (standard z score)” value (ENR+CD organoids; dose 2.00 uM) was −0.665, the Dose.FC.CTG (ENR+CD organoids; dose 10.00 uM) was −0.519 log2 fold change and the “Z.CTG (standard z score)” value (ENR+CD organoids; dose 10.00 uM) was −1.240.
